Key:
Details in all cases: exposure time: 90 min
1368 [1] = donor line of iPSC-derived cardiomyocytes; test: POD (EC05) for increase in beat frequency (positive chronotrope) vs vehicle; higher = less potent (higher point of departure)
Method in brief: (§1)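 Cardiomyocytes derived from human iPSCs of 16 donors were grown 14 days in gelatin-coated 384-well plates, loaded 2 h with a fluorescent Ca2+ dye, then exposed for 90 min at 37 °C to final concentrations of 0.1, 1, 10 and 100 µM in 0.5% DMSO. A FLIPR Tetra recorded Ca2+ flux at 8 frames/s for 100 s before and after exposure. Points of departure for each donor were derived by hierarchical Bayesian Hill fitting of vehicle-normalised beat frequency, decay-to-rise ratio or peak frequency. The thresholds applied were a 5% change, or a 95% loss for peak frequency.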

1392 [2] = donor line of iPSC-derived cardiomyocytes; test: as above
Method in brief: as §1

1535 [3] = donor line of iPSC-derived cardiomyocytes; test: as above
Method in brief: as §1

1083 = donor line of iPSC-derived cardiomyocytes; test: POD (EC05) for increase in Ca2+ transient decay-to-rise ratio (QT prolongation) vs vehicle; higher = less potent (higher point of departure)
Description: (§2)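 Human iPSC-derived cardiomyocytes from 16 donors were exposed for 90 min at 37 °C to each PFAS at 0.1, 1, 10 and 100 µM in 0.5% DMSO, 384-well plates. Kinetic Ca2+ flux (FLIPR) and Hoechst nuclei counts were normalised to vehicle wells and fitted with a hierarchical Bayesian Hill model to give donor-specific PODs: EC05 for beat-rate increase or decrease and for decay-to-rise ratio increase (QT proxy), EC95 for peak-frequency loss (asystole), EC10 for total cell number loss. 0.03 µM is the lower bound.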

1118 = donor line of iPSC-derived cardiomyocytes; test: as above
Description: as §2

11235 = donor line of iPSC-derived cardiomyocytes; test: as above
Description: as §2

1309 = donor line of iPSC-derived cardiomyocytes; test: as above
Description: as §2

1368 [4] = test: as above
Description: as §2

1392 [5] = test: as above
Description: as §2

1434 = donor line of iPSC-derived cardiomyocytes; test: as above
Description: as §2

1516 = donor line of iPSC-derived cardiomyocytes; test: as above
Description: as §2

1518 = donor line of iPSC-derived cardiomyocytes; test: as above
Description: as §2

1531 = donor line of iPSC-derived cardiomyocytes; test: as above
Description: as §2

1535 [6] = test: as above
Description: as §2

1565 = donor line of iPSC-derived cardiomyocytes; test: as above
Description: as §2

20032 = donor line of iPSC-derived cardiomyocytes; test: as above
Description: as §2

20084 = donor line of iPSC-derived cardiomyocytes; test: as above
Description: as §2

30145 [7] = donor line of iPSC-derived cardiomyocytes; test: as above
Description: as §2

30171 = donor line of iPSC-derived cardiomyocytes; test: as above
Description: as §2

30145 [8] = test: POD (EC05) for increase in beat frequency (positive chronotrope) vs vehicle; higher = less potent (higher point of departure)
Method in brief: as §1

SMILES | POD vs vehicle 1368 [1] | POD vs vehicle 1392 [2] | POD vs vehicle 1535 [3] | POD vs vehicle 1083 | POD vs vehicle 1118 | POD vs vehicle 11235 | POD vs vehicle 1309 | POD vs vehicle 1368 [4] | POD vs vehicle 1392 [5] | POD vs vehicle 1434 | POD vs vehicle 1516 | POD vs vehicle 1518 | POD vs vehicle 1531 | POD vs vehicle 1535 [6] | POD vs vehicle 1565 | POD vs vehicle 20032 | POD vs vehicle 20084 | POD vs vehicle 30145 [7] | POD vs vehicle 30171 | POD vs vehicle 30145 [8]
O=S(=O)(O)CCC(F)(F)C(F)(F)C(F)(F)C(F)(F)F [4:2 Fluorotelomer sulfonic acid] | > 100 µM | > 100 µM | > 100 µM | > 100 µM | > 100 µM | > 100 µM | > 100 µM | > 100 µM | > 100 µM | > 100 µM | > 100 µM | > 100 µM | > 100 µM | > 100 µM | > 100 µM | > 100 µM | > 100 µM | > 100 µM | > 100 µM | 
OCC(F)(F)C(F)(F)C(F)(F)F [Heptafluorobutanol] | > 100 µM | > 100 µM | > 100 µM | > 100 µM | > 100 µM | > 100 µM | > 100 µM | > 100 µM | > 100 µM | > 100 µM |  |  | > 100 µM | > 100 µM | > 100 µM | > 100 µM | > 100 µM | > 100 µM | > 100 µM | 
OCC(F)(F)C(F)(F)C(F)(F)CO [Hexafluoroamylene_glycol] | > 100 µM | > 100 µM | > 100 µM | > 100 µM | > 100 µM | > 100 µM | > 100 µM | > 100 µM | > 100 µM | > 100 µM |  |  | > 100 µM | > 100 µM | > 100 µM | > 100 µM | > 100 µM | > 100 µM | > 100 µM | 
NC(=O)C(F)(F)C(F)(F)C(F)(F)C(F)(F)F [Nonafluoropentanamide] | > 100 µM | > 100 µM | > 100 µM | > 100 µM | > 100 µM | > 100 µM | > 100 µM | > 100 µM | > 100 µM | 0.357 µM | > 100 µM | 0.612 µM |  | > 100 µM | > 100 µM | 0.52 µM | > 100 µM | > 100 µM | > 100 µM | > 100 µM
O=C(O)C(F)(F)C(F)(F)C(F)(F)C(F)(F)C(=O)O [Octafluoroadipic_acid] | > 100 µM | > 100 µM | > 100 µM | > 100 µM | > 100 µM | > 100 µM | > 100 µM | > 100 µM | > 100 µM | > 100 µM | > 100 µM | > 100 µM |  | > 100 µM | > 100 µM | > 100 µM | > 100 µM | > 100 µM | > 100 µM | > 100 µM
O=C(O)C(F)(F)OC(F)(F)C(F)(F)OC(F)(F)F [Perfluoro-3,6-dioxaheptanoic_acid] | > 100 µM | > 100 µM | > 100 µM | > 100 µM | > 100 µM | > 100 µM | > 100 µM | > 100 µM | > 100 µM | > 100 µM |  |  | > 100 µM | > 100 µM | > 100 µM | > 100 µM | > 100 µM | > 100 µM | > 100 µM | 
O=C(O)C(F)(F)OC(F)(F)C(F)(F)OC(F)(F)C(=O)O [Perfluoro-3,6-dioxaoctane-1,8-dioic_acid] | > 100 µM | 36 µM | > 100 µM | > 100 µM | > 100 µM | > 100 µM | > 100 µM | > 100 µM | > 100 µM | > 100 µM | > 100 µM | > 100 µM |  | > 100 µM | > 100 µM | > 100 µM | > 100 µM | > 100 µM | > 100 µM | > 100 µM
O=C(O)C(F)(F)C(F)(F)C(F)(F)OC(F)(C(F)(F)F)C(F)(F)F [Perfluoro-4-isopropoxybutanoic_acid] | > 100 µM | > 100 µM | > 100 µM | > 100 µM | > 100 µM | > 100 µM | > 100 µM | > 100 µM | > 100 µM | > 100 µM | > 100 µM | > 100 µM |  | > 100 µM | > 100 µM | > 100 µM | > 100 µM | > 100 µM | > 100 µM | > 100 µM
O=S(=O)(O)C(F)(F)C(F)(F)C(F)(F)C(F)(F)F [Perfluorobutanesulfonic_acid] | > 100 µM | > 100 µM | > 100 µM | > 100 µM | > 100 µM | > 100 µM | > 100 µM | > 100 µM | > 100 µM | > 100 µM | 39.7 µM | > 100 µM | > 100 µM | > 100 µM | > 100 µM | > 100 µM | > 100 µM | > 100 µM | > 100 µM | 
O=C(O)C(F)(F)C(F)(F)C(F)(F)C(F)(F)C(F)(F)C(F)(F)C(F)(F)C(F)(F)F [Perfluorononanoic_acid] | > 100 µM | > 100 µM | > 100 µM | > 100 µM | > 100 µM | > 100 µM | > 100 µM | > 100 µM | > 100 µM | > 100 µM |  |  | > 100 µM | > 100 µM | > 100 µM | > 100 µM | > 100 µM | > 100 µM | > 100 µM | 
O=S(=O)([O-])C(F)(F)C(F)(F)C(F)(F)C(F)(F)F.[K+] [Potassium_perfluorobutanesulfonate] | > 100 µM | > 100 µM | > 100 µM | > 100 µM | > 100 µM | > 100 µM | > 100 µM | > 100 µM | > 100 µM | > 100 µM | > 100 µM | > 100 µM |  | > 100 µM | > 100 µM | > 100 µM | > 100 µM | > 100 µM | > 100 µM | > 100 µM

Source: the supplement of paper PMC11368000
